# Data published in article PMC12295124, “Quercetin, Catechin, and Diosmin as Modulators of Haloperidol–HSA Interactions: A Biophysical and Computational Study” (International Journal of Molecular Sciences, 2025).
# Molecular target: T1, human serum albumin (Homo sapiens, UniProt P02768)
# T1 construct: gene ALB
# Test: intrinsic Trp fluorescence quenching (excitation […] nm, […] K), double-log plot; Kb is an association constant
# Format: binding
# Settings: read-out: Kb/dm^3 mol^-1 (converted)
# T1 sequence (P02768 25-609): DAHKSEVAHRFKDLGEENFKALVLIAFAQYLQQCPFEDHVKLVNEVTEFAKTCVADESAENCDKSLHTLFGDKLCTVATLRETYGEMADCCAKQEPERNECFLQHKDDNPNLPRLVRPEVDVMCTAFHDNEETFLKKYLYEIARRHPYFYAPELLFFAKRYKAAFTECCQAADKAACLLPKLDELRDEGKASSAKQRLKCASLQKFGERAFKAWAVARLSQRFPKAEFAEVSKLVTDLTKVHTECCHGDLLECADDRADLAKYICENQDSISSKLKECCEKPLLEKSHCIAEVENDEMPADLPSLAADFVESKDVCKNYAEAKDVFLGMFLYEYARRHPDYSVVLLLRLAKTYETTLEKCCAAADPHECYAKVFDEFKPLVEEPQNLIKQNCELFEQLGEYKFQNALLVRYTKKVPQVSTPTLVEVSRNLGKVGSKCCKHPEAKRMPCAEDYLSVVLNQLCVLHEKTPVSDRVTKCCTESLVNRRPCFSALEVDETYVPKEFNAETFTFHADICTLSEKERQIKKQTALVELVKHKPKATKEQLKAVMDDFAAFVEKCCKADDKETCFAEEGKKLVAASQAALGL
compound,measurement,value
"O=C(CCCN1CCC(O)(c2ccc(Cl)cc2)CC1)c1ccc(F)cc1 [HPD, haloperidol]",Kd,225 µM
